The target in series [1] is T1, ChT-L activity of the 26S proteasome (Homo sapiens, UniProt P28074).
T1 sequence (P28074 60-263): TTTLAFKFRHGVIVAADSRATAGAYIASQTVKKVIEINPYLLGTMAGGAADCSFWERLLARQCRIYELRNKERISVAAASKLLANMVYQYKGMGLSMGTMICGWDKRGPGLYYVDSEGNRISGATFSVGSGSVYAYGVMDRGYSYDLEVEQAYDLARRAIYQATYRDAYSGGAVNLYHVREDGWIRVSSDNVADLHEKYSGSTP
Nature of the series: Proteasome inhibition after pre-incubation with newborn bovine serum. Format: in vitro ADME. As to conditions: pre-incubation 1 hour at 37° C. with NBS. On the procedure: EDTA chelates divalent metal ions. By including EDTA during the pre-incubation step, EDTA protected compound 8 from being deactivated by NBS, shown by low proteasome activity below 5 nM of compound 8.
The assays were performed in biological triplicate, and the data points are reported with the corresponding standard deviations.

The subject of another series is Jurkat cells. Put plainly: Apoptosis assay (Annexin V-FITC, flow cytometry). Format: cell-based, human. How it is done: Apoptosis assay: 1 mL of Jurkat cells, at a density of 500,000 cells per milliliter, was added to 12 wells of a 24 well microtiter plate. Cells were treated immediately using a serial dilution of the synthesized proteasome inhibitors, the benzyl ester of Cystargolide B and the belactosin-cystargolide hybrid molecule. 10 μM Paclitaxel and 0.2 μg/mL Doxorubicin hydrochloride were used as positive apoptosis controls and non-treated cells were used as a negative control. The cells were then incubated for 24 h at 37° C. and 5% CO2. The following day, Annexin V-FITC conjugate was used to assay for the expression of phosphatidyl serine on the […] of the cellular membrane. The cells were briefly pelleted, aspirated, and resuspended in 300 μL of a reaction mixture containing 0.2 μL/mL of the Annexin V FITC solution, 2 mM CaCl2 to enable binding, and 2 μg/mL propidium iodide as an indicator of cell permeability. Each sample was incubated at 37° C. for 20 minutes, and then analyzed by flow cytometry. Single, whole cells were selected based on the forward and the side-scatter. With an excitation of 488 nm Annexin V-FITC binding was identified using FL1 533 nm emission. Propidium iodide staining was selected based on FL2 585 nm emission. […] Measurements were taken in biological triplicate for each sample, and the results were confirmed in technical triplicate.
On the technique in general: A flow cytometer gives signals particle by particle.

On to `CC[C@H](C)[C@@H]1C(=O)O[C@H]1C(=O)N[C@H](C(=O)N[C@H](C(=O)OCc1ccccc1)C(C)C)C(C)C` [Compound 8, Benzyl ((2R,3S)-3-((S)-sec-butyl)-4-oxooxetane-2-carbonyl)-L-valyl-L-valinate], for which the “deactivation by newborn bovine serum” value in series [1] is listed as “deactivates compound 8”. The induction of apoptosis entry in the series on Jurkat cells is recorded as “induction of apoptosis”.

For the origin of these results see US11396497B2, “Proteasome inhibitors” (New Mexico Tech University Research Park Corporation, priority 2018, dated 2022).
